Laboratory results reported in patent publication US10011587B2, “Multivalent ligands targeting VEGFR” (THE METHODIST HOSPITAL SYSTEM, priority 2014, dated 2018).

Columns and labels:
[1] = system: VEGF165-induced angiogenesis; test: In vivo Matrigel plug assay; parameters: species or system nu/nu nude mice; settings: VEGF165 500 ng/mL, compound 100 μM, 10 days
Method: The matrigel plug assays were performed injecting 637 μL of growth factor reduced liquid Matrigel-PBS mixture was into subcutaneously into the flanks of nu/nu nude mice at 4° C. Once inside the animals, the liquid Matrigel-PBS mixture solidifies. For comparison, Matrigel alone as well as Matrigel containing VEGF165 (Peprotech, Rocky Hill, N.J.) at a final concentration of 500 ng/mL to stimulate angiogenesis, and Matrigel with VEGF165 along with either ZD6474 monomer, ZD6474 dimer at a final concentration of 100 μM were used. All of the injection groups consisted of three mice. After 10 days, the mice were sacrificed and the Matrigel plugs were removed, fixed in 4% formalin and photographed.

HUVECs [2] = test: In vitro cell viability (MTT), HUVECs; type: cell-based, human
Method: MDA-MB-231 and U-87-MG cell lines were cultured in DMEM medium (Gibco, Grand Island, N.Y.) containing 10% fetal bovine serum (FBS) and 1% penicillin streptomycin at 37° C. in a humidified atmosphere of 5% CO2 in air. HCT 116 (human, colorectal carcinoma cell line) was grown in McCoy's 5a medium modified with 10% FBS. HUVECs (Human Umbilical Vein Endothelial cells) were grown in EGM medium (Lonza), supplemented with 20% FBS, 100 U/mL penicillin, 100 μg/mL streptomycin at 37° C. under a humidified atmosphere of 5% CO2 and 95% O2 with same condition as above. For the cell viability assay, the cells were then seeded into 96-well flat-bottomed tissue-culture plates at 1×10^4 cells/well and incubated for 24 or 72 h in humidified atmosphere of 5% (v/v) CO2 at 37° C. in the presence of each compound. For HUVECs, the flat-bottomed 96-well plate (Corning, N.Y., USA) was coated 1 h at 37° C. with gelatin (0.3% in PBS, pH 7.4) and then washed with PBS. […] Following 24 and 72 h of incubation under 5% CO2 at 37° C., the cells were washed with PBS and cell viability was assessed by MTT colorimetric assay. The absorbance of individual wells was measured by using an automated microplate reader (570 nm; VERSAmax, Molecular Devices Corp., Sunnyvale, Calif.). The data are expressed as the percentage of viable cells compared to the survival of a control group and were presented as mean±s.e. […]

[3] = system: MDA-MB-231, HCT-116, U-87-MG; test: In vitro cell viability (MTT), cancer cell lines; type: cell-based, human
Method: (§1) MDA-MB-231 and U-87-MG cell lines were cultured in DMEM medium (Gibco, Grand Island, N.Y.) containing 10% fetal bovine serum (FBS) and 1% penicillin streptomycin at 37° C. in a humidified atmosphere of 5% CO2 in air. HCT 116 (human, colorectal carcinoma cell line) was grown in McCoy's 5a medium modified with 10% FBS. HUVECs (Human Umbilical Vein Endothelial cells) were grown in EGM medium (Lonza), supplemented with 20% FBS, 100 U/mL penicillin, 100 μg/mL streptomycin at 37° C. under a humidified atmosphere of 5% CO2 and 95% O2 with same condition as above. For the cell viability assay, the cells were then seeded into 96-well flat-bottomed tissue-culture plates at 1×10^4 cells/well and incubated for 24 or 72 h in humidified atmosphere of 5% (v/v) CO2 at 37° C. in the presence of each compound. For HUVECs, the flat-bottomed 96-well plate (Corning, N.Y., USA) was coated 1 h at 37° C. with gelatin (0.3% in PBS, pH 7.4) and then washed with PBS. The cells were then treated with ZD6474 monomer and its dimer compounds in the range from 5 nM to 100 μM concentration mixed with 1% FBS added culture medium (HUVECs was 2% FBS added). Following 24 and 72 h of incubation under 5% CO2 at 37° C., the cells were washed with PBS and cell viability was assessed by MTT colorimetric assay. The absorbance of individual wells was measured by using an automated microplate reader (570 nm; VERSAmax, Molecular Devices Corp., Sunnyvale, Calif.). The data are expressed as the percentage of viable cells compared to the survival of a control group and were presented as mean±s.e. (n=6).

HUVECs [4] = test: In vitro tubular formation on Matrigel; type: cell-based, human; settings: 10 μM, 6 h
Method: Growth factor reduced Matrigel (100 μL, BD Bioscience, San Jose, Calif., USA) was added to each well of a 96-well plate and allowed to polymerize for 30 min at 37° C. HUVECs were suspended in the medium at the density of 4×10^5 cells per milliliter, and 0.1 mL of the cell suspension was added to each well coated with Matrigel in the presence of ZD6474 monomer or ZD6474 dimer Cells were incubated at 37° C. for 6 h, and then photographed. The branch points were counted and averaged.

VEGF receptor on HUVECs = test: Blocking assay of FAM-conjugated compounds; type: cell-based, human; settings: HUVEC
Method: Specific binding of ZD6474-monomer and dimer were tested with blocking studies. Unlabeled ZD6474-monomer and ZD6474-dimer were mixed with the corresponding FAM-conjugated compounds simultaneously for 3 h. Plates were then imaged using the Xenogen IVIS-200 system. Similarly treated cells were fixed in 4% paraformaldehyde and imaged under fluorescent microscopy after staining the nuclei with DAPI.

[5] = system: U87-MG human glioblastoma xenograft; test: Ex vivo tumor accumulation and biodistribution fluorescence imaging; type: in vivo, nu/nu female mice
Method: The subcutaneous dorsa of five nu/nu female mice (6 weeks old; 20 g) were inoculated bilaterally with 1×10^7 U87-MG human glioblastoma cells overexpressing the VEGF receptor. Once the tumor diameter was approximately 7-8 mm at 21 days post implant, the mice were divided into three groups for the following injections: (a) free FAM (n=1), (b) FAM-labeled ZD6474-monomer (50 μM; n=2), and (c) FAM-labeled ZD6474-dimer (50 μM, n=2). The animals were manually restrained during intravenous tail injection. All tail vein injections were carried out with a 31 gauge needle placed in a lateral tail vein to inject 100 μL of solution. Twenty-four hours post injection, fluorescence images were acquired using a one second exposure time. The tumors and major organs were dissected and imaged again. […] In vivo fluorescence imaging was performed using the Xenogen IVIS 200 imaging system. To better observe the signal without losses and background due to intervening tissue, fluorescence images were collected ex vivo. Raw counts for each organ were measured using the Xenogen software by drawing oval regions of interest (ROI) around the organ of interest. […] An estimate of the percentage of injected dose accumulated in the tumors was established by comparing measured counts/volume of tissue with the measured counts/volume of a known concentration of the same compound in water at the same exposure. […]

[6] = system: MDA-MB-231 cells and HUVEC; test: In vitro cellular uptake of FAM-conjugated compounds; type: cell-based, human; settings: 3 h, 100 nM dose
Method: Each of the FAM-conjugated compounds was incubated with MDA-MB-231 cells seeded 24 h earlier in a 96 well plate with 1% serum medium. Serial dilutions of the compounds were incubated for 3 h. The treated medium was then exchanged for fresh serum free medium. The remaining compound was then quantified from images taken using a Xenogen IVIS-200 (PerkinElmer, Inc. San Jose, Calif.) fluorescent imaging system. The same was done with HUVEC.

[7] = In vitro cell viability (MTT), cancer cell lines; type: cell-based, human; settings: human, MDA-MB-231, HCT-116 and U-87-MG cancer cells; 100 μM, cancer cell lines, 72 h; read-out: cells remaining viable
Method: as §1

VEGFR2 = target: T1, VEGFR2 (Homo sapiens, UniProt P35968); test: Cell VEGFR2 receptor-binding assay, displacement/competition; settings: read-out: 50% inhibitory concentration (IC50)
T1 construct: evaluated by saturation and displacement assays using U87 cells; endogenous in cells; host or cells: U87 (U87MG) human glioblastoma cells
Method: Cells were seeded in 12 well plates at concentration of 5×10^5 cells per well the day before the experiment. […] The cells were then washed with cold PBS and trypsinized. The cell-associated radioactivity was measured using γ-counter (Perkin-Elmer, CT) and the Kd values were calculated by fitting the data by nonlinear regression using GraphPad Prism (GraphPad Software, CA). […] The experiment procedures are similar with those used for the saturation study described above. All experiments were carried out with triplicate samples.

VEGFR = target: T2, VEGFR (Homo sapiens, UniProt P35968); test: VEGFR cell receptor-binding assay, competition against 64Cu-DOTA-ZD-G2; settings: U-87 MG cells, 1 uCi 64Cu-DOTA-ZD-G2 per well, 4° C., 1 hour
T2 construct: endogenous in cells; host or cells: U-87 MG human glioblastoma cells
Method: Cells were seeded in 12-well plates at a density about 5×10^5 cells per well the day before the experiment. […] The HPLC purified radio-tracer was re-dissolved in FBS-free DMEM medium and diluted to 1 uCi/100 uL. […] After incubation at 4° C. for 1 hour, the supernatant with free radio tracer was removed carefully and the cells were then washed with cold PBS for three times and trypsinized. The cells were collected and cell pellet associated radioactivity was measured and the binding affinity values (IC50) were calculated by nonlinear regression using GraphPad Prism (GraphPad Software, CA). All experiments were carried out in triplicate.

T2 sequence (P35968 20-1356): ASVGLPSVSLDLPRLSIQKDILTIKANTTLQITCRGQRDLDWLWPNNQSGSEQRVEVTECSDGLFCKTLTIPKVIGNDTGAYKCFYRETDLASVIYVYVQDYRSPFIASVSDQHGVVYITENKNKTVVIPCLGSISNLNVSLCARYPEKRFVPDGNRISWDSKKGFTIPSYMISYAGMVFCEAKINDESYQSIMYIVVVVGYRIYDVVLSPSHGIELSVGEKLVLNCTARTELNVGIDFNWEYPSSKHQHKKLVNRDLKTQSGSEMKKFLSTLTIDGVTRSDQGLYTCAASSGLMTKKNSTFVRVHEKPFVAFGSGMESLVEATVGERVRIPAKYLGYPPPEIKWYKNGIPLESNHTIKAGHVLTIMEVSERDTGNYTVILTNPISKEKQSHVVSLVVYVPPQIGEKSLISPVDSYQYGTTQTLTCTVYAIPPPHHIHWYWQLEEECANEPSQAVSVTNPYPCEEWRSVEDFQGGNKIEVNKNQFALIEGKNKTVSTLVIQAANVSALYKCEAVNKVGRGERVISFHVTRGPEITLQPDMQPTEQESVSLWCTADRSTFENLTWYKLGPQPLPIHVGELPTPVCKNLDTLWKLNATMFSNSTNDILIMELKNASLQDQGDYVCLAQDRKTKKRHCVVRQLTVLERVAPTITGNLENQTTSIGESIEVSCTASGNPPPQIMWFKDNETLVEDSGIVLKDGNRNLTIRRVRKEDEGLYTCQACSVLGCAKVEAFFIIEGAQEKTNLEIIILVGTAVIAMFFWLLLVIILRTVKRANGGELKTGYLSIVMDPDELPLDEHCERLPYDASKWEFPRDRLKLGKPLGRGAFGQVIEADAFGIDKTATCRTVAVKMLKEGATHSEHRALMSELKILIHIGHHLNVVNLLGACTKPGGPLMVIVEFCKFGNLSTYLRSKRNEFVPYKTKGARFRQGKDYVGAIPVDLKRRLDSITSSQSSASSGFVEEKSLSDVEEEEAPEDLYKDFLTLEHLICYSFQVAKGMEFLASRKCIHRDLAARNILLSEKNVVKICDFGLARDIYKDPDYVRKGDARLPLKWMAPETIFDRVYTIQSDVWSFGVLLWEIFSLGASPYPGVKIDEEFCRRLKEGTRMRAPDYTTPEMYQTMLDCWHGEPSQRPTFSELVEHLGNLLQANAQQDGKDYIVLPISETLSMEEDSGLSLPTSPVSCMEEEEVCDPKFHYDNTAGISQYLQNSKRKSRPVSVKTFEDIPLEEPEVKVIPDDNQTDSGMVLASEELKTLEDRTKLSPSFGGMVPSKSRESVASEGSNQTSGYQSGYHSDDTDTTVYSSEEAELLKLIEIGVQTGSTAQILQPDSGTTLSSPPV
T1 sequence (P35968 20-1356): as above

Q: What does the source list for `COc1cc2c(Nc3ccc(Br)cc3F)ncnc2cc1OCC1CCN(C(=O)CCCCCC(N)C(=O)N2CCC(COc3cc4ncnc(Nc5ccc(Br)cc5F)c4cc3OC)CC2)CC1` (stereo not shown) [ZD6474-dimer]?
A: appearance of Matrigel plugs (blood vessel formation) [1]: almost the same as the PBS treated negative control group; concentration at which cell viability begins to be affected (HUVECs [2]): 500 nM; toxicity to the cancer cells ([3]; 5 nM to 50 μM): low toxicity; cells remaining viable ([3]; 100 μM, cancer cell lines, 72 h): around 50%; number of tube branches (control group 100%) (HUVECs [4]): 75±5.2%

Q: For `COc1cc2c(Nc3ccc(Br)cc3F)ncnc2cc1OCC1CCN(C(=O)c2ccc(C(=O)O)c(-c3c4ccc(=O)cc-4oc4cc(O)ccc34)c2)CC1` [monomer-FAM], which “mean blocked signal relative to blocked dimer FAM” value (VEGF receptor on HUVECs; 100× unlabeled compound, 10 μM dose) is on record?
A: The value was “over 10 ×”.

Q: Which results are given for `COc1cc2c(Nc3ccc(Br)cc3F)ncnc2cc1OCC1CCN(C(=O)CCCCCC(NC(=O)c2ccc(C(=O)O)c(-c3c4ccc(=O)cc-4oc4cc(O)ccc34)c2)C(=O)N2CCC(COc3cc4ncnc(Nc5ccc(Br)cc5F)c4cc3OC)CC2)CC1` (stereo not shown) [dimer-FAM]?
A: total injected dose ending up in the tumors ([5]; 24 h after i.v. injection, estimate against known dye concentrations): at least 6%; fluorescent intensity of tumors relative to tumors in other groups and organs ([5]; ex vivo, 24 h following i.v. injection): about 20 ×; uptake in HUVECs compared with MDA-MB-231 cells [6]: overall higher uptake of dimer-FAM by HUVECs; blocking of fluorescence (cellular uptake images) (VEGF receptor on HUVECs; 100 μM ZD6474-dimer): Complete blocking of fluorescence; loss of FAM signal when mixed with unlabeled dimer (VEGF receptor on HUVECs; 100× unlabeled ZD6474-dimer, 3 h): ~90%

Q: For `COc1cc2c(Nc3ccc(Br)cc3F)ncnc2cc1OCC1CCN(C)CC1` [ZD-G1, vandetanib, reference compound], which “concentration at which cell viability begins to be affected” value (HUVECs [2]) is on record?
A: Its value is 500 nM.

Q: And the viability at 72 h, 100 µM [7]?
A: Its viability at 72 h, 100 µM is about 50%.

Q: What about the “number of tube branches (control group 100%)” value (HUVECs [4]) of the same compound?
A: The value was 52.0±4.8%.

Q: For `COc1cc2c(Nc3ccc(Br)cc3F)ncnc2cc1OCC1CCN(C(=O)OCCN(CCOC(=O)NCCN)CCOC(=O)N2CCC(COc3cc4ncnc(Nc5ccc(Br)cc5F)c4cc3OC)CC2)CC1` [ZD-G2], which IC50 (VEGFR2) is on record?
A: Its IC50 is 0.023 ± 0.002 nM.

Q: And the IC50 (VEGFR)?
A: Its IC50 is 0.026 nM.
